Consider four compounds from patent US20200270588A1, “GLUCOSYL TRANSFERASE POLYPEPTIDES AND METHODS OF USE” (Syngenta Participations AG, priority 2017, published 2020).

Type in all cases: biochemical
Experiment [1] has as its target T1, SEQ ID 36, mutant bx-type glucosyl transferase (Zea mays, UniProt Q8W2B7, M283F/S121V/S338K).
T1 construct: 36; 6.03E+06; 6.40E+09; 1.75E+08; His tag; made in house
The experiment in a line: LC/MS glucosyl transferase assay (glucoside peak area), purified enzyme. Conditions: about 60 min, ~15 pmol enzyme, relative quantification only. The procedure:
(§1) In an alternative method for assaying the various enzymes, the test glucosyl transferase enzyme is reacted with substrates exactly as above except that the assay is stopped by adding an equal volume of acetonitrile. Alternatively 50 or 100 μl samples from assay reactions are added to 500 μl ethyl acetate to stop the reaction. In this case samples are then vortexed and 400 μl of the ethyl acetate partition removed, dried down, and resuspended in 100 μl 80:20 acetonitrile/water. The formation of product gluco side and/or disappearance of substrate test herbicide is then monitored directly by LC/MS. Samples are analyzed by LC-MS using an Agilent 1290 liquid chromatography system and Thermo Q-Exactive mass spectrometer. The chromatography is achieved on a Waters Acquity C18 BEH (50×2.1 mm) 1.7 μm particle size column, using a 6 minute gradient run of Water (0.2% formic acid) and Acetonitrile. The Q-Exactive is operated in positive ionisation electrospray mode, using Full scan-AIF mode, at 35,000 resolution, between 100-800 m/z. All analytes are identified from the full scan data to within at least 5 ppm accuracy of their predicted pseudo-molecular ion [M+H]^+ m/z value. In order to obtain quantitative data standard curves are run using herbicides and herbicide glucosides synthesized as standards. Where these synthetic glucosides were not available the LC/MS assay could only be used to provide relative data.
(§2) DNA sequences, optimized for E. coli codon usage, were cloned, expressed and the various proteins purified and assayed as described in the foregoing examples. Using the UDP assay (as described in examples 1, 3 and 6) the data obtained from the Zea mays bx8 w/t protein and its variants was noisy due to relatively high background rates in DMSO reagent blanks. The values reported in the table 15 were thus monitored by LC/MS as described in example 1.

Experiment [2] deals with T2, SEQ ID 34, mutant bx-type glucosyl transferase (Zea mays, UniProt Q8W2B7, V367W).
T2 construct: 34; 2.45E+05; 2.17E+07; 5.21E+06; His tag; made in house
The experiment is described as above. The following applies: about 60 min, ~15 pmol enzyme, relative quantification only. How it is done:
as §1, §2

Experiment [3] addresses T3, SEQ ID 32, mutant bx-type glucosyl transferase (Zea mays, UniProt Q8W2B7, M283F).
T3 construct: 32; 9.98E+05; 1.75E+08; 8.33E+06; His tag; made in house
The experiment is described as above. Conditions: about 60 min, ~15 pmol enzyme, relative quantification only. How it is done: as §1, §2

Experiment [4] relates to wheat bx glucosyl transferase (SEQ ID NO 4). The experiment in a line: UDP-Glo glucosyl transferase assay, purified enzyme. The following applies: for Activity: herbicide 0.500 mM, limit of detection about 0.001. How it is done:
(§3) Glucosyl transferase activity is assayed via measurement of acceptor substrate-dependent production of UDP from ultrapure UDP-glucose using the Promega UDP-Glo™ method and according to the manufacturer's instructions. Assays are run in 96 well microtiter plates.
(§4) Enzyme, typically at a stock concentration of ˜2 mg/ml is diluted to an appropriate concentration in 50 mM K^+ Hepes buffer at pH7.5 containing 0.5 mg/mL bovine serum albumin (BSA) and 5 ul aliquots of this diluted enzyme added to each well of a Perkin Elmer white ½ area 96 well plate. […] Assays are run for an appropriate time (usually 10 to 60 min) so that the amount of UDP formed lies within the most nearly linear part of the UDP standard curve and are stopped with the addition and mixing of 25 ul UDP-Glo™ detection reagent (prepared as described below). Plates are then incubated at room temperature for 60 minutes and then read in a luminescence plate reader (Perkin Elmer Envision 2130 Multilabel Reader). A UDP standard curve is run alongside each set of assays and reagent blank control assays run with DMSO in place of test herbicide. Typically, 300 pmol of UDP corresponds to a Relative Luminescence Unit (RLU) reading of about 1.5E7 and the response curve between 0 and 600 pmol is fitted to a polynomial function (see for example FIG. 2).
(§5) The UDP-Glo™ reagents are made up and used according to the manufacturer's instructions. Thus, Nucleotide Detection Buffer and ATP are combined to make nucleotide detection reagent (NDR) dispensed into aliquots and frozen to be freshly thawed before use.
(§6) Km and kcat values in respect of UDP-glucose are derived by carrying out experiments to measure initial rates over a suitable range of concentrations of UDP glucose out at a fixed near saturating concentration of acceptor substrate. Best fit values of kcat, Km and kcat/Km are obtained by direct fitting of the data to the Michaelis-Menten equation using Graphpad Prism™ software.
(§7) DNA sequences, optimized for E. coli codon usage, corresponding to SEQ IDs 1-15, encoding BX8 and BX9 orthologue polypeptides derived from a range of species (as depicted in FIG. 1) were synthesized by Genewiz (South Plainfield, USA) with 5′ NdeI and 3′ XhoI restriction sites. The various orthologues were synthesized with either a N-terminal 6×His purification tag or C-terminal 6×His purification tag (i.e. tried both ways to achieve best expression of activity) and cloned into the E. coli expression plasmid pET24a (Novagen) via the NdeI and XhoI restriction sites. Expression, purification and assay was as described in Example 1.
(§8) Assays were carried out as described in Example 1. Partly purified C-terminally his tagged w/t Larkspur enzyme (SEQ ID No 10 with a 6 amino acid C-terminal tag) catalyzed glucosyl transfer to herbicide V at a rate estimated to be about 0.0065/s/pmol at 1 mM herbicide V. The similarly-tagged w/t bx-like enzymes from rye (SEQ ID No 11) and from wheat (SEQ ID No 4) were also active but only at levels close to the detection limit at ˜0.0015/s/pmol. Further examples of assay results from further experiments are depicted in Table 14. All of the proteins were C-terminally his tagged versions of the sequences referenced except for the Zea mays bx8 SEQ ID NO: 2 which was N-terminally his tagged.

Experiment [5] deals with Avena bx glucosyl transferase (SEQ ID NO 8). The experiment is described as above. Conditions: herbicide 0.500 mM; limit of detection about 0.001. The procedure:
as §3, §4, §5, §6, §7, §8

Several values for one entry are separate records, joined by “and”; a condition that tells them apart may be missing. Equal entries are not always repeated.

T1 sequence (Q8W2B7 whole entry S121V/M283F/S338K): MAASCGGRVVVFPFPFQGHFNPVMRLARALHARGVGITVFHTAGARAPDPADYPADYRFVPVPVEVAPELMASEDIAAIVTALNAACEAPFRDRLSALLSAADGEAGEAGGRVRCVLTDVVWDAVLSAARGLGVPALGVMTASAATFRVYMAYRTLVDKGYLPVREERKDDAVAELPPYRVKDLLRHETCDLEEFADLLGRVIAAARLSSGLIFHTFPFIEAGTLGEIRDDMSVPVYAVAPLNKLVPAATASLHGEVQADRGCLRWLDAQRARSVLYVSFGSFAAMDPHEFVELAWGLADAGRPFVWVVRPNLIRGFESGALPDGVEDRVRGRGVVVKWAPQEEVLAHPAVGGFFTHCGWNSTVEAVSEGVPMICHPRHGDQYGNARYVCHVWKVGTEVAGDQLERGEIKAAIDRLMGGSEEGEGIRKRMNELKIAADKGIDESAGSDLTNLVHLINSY
T2 sequence (Q8W2B7 whole entry V367W): as the sequence (Q8W2B7 whole entry S121V/M283F/S338K) above, with V121S, F283M, K338S, V367W counted along it
T3 sequence (Q8W2B7 whole entry M283F): as the sequence (Q8W2B7 whole entry S121V/M283F/S338K) above, with V121S, K338S counted along it

As to `CON1C(=O)N(c2cc(C(F)(F)F)ccn2)C(O)[C@@H]1C` (stereo partly drawn) [Compound VI], the “integrated peak area of beta-glucoside product” value (“integrated peak area” for short) was 6.40E+09 and 6.87E+09 in experiment [1]; 2.17E+07 and 2.00E+07 in experiment [2]; 1.75E+08 and 1.89E+08 in experiment [3]. Besides, the Activity in experiment [4] amounted to 0.000 pmol/sec/pmol enzyme; in experiment [5], 0.002 pmol/sec/pmol enzyme.
In the case of `CN1CC(O)N(c2cc(C(F)(F)F)c(Cl)cn2)C1=O` (stereo not drawn) [XI], the “integrated peak area” value in experiment [1] is 6.03E+06 and 6.40E+06; in experiment [2], 2.45E+05; in experiment [3] it was 9.98E+05 and 1.08E+06. The Activity is listed as 0.001 pmol/sec/pmol enzyme in experiment [4] and 0.002 pmol/sec/pmol enzyme in experiment [5].
Regarding `Cc1cnc(N2C(=O)N(C)CC2O)cc1C(F)(F)F` (stereo not drawn) [XVIII], the Activity was found to be 0.000 pmol/sec/pmol enzyme in experiment [4] and 0.003 pmol/sec/pmol enzyme in experiment [5].
Regarding `CN1CC(O)N(c2cc(C(F)(F)F)ccn2)C1=O` (stereo not drawn) [Compound V], the “integrated peak area” value in experiment [1] is 1.75E+08 and 1.96E+08; in experiment [2], 5.21E+06 and 4.16E+06; in experiment [3] it was 8.33E+06 and 6.18E+06. Also, the Activity worked out at 0.001 pmol/sec/pmol enzyme in experiment [4] and 0.002 pmol/sec/pmol enzyme in experiment [5]. The “rate of glucosyl transfer” value in experiment [4] (herbicide V, close to the detection limit) was roughly 0.0015 s⁻¹ pmol⁻¹.
